Experiments:
[1] = Retrospective study of INR fluctuations outside the target therapeutic INR range in 1,615 patients of the MHI warfarin clinic (Rosendaal method); format: in vivo, human; conditions: post-stabilization follow up period (first six months and hospitalization periods excluded)
Protocol: (§1) The study was focused on the post INR-stabilization period by excluding the first six months of therapy, and further excluded hospitalization periods. […] INR fluctuations were measured according to the Rosendaal method based on linear interpolation.

[2] = Pilot genetic study of INR fluctuations in 324 post INR-stabilization atrial fibrillation patients by CYP4F2 rs2108622 and NR1I2 rs6772976 genotype; format: in vivo, human
Protocol: as §1
For the pilot genetic study, 324 patients with atrial fibrillation were selected, for whom therapy was started prior to Aug. 1, 2005, with a follow up of 36 months or more and with at most 70 years of age. […] Genotyping was conducted using the Sequenom technology.

CC(=O)CC(c1ccccc1)c1c(O)c2ccccc2oc1=O (stereo not shown) [warfarin]
time above target therapeutic INR range [1]: 17.2%
average % of the time above the patient-specific target therapeutic INR range ([2]; patients with CYP4F2 rs2108622 CC genotype): 17.1%
average % of the time above the patient-specific target therapeutic INR range ([2]; patients with CYP4F2 rs2108622 CT genotype): 15.9%
average % of the time above the patient-specific target therapeutic INR range ([2]; patients with CYP4F2 rs2108622 TT genotype): 29.6%

— patent US8563241B2 (Institut de Cardiologie de Montreal, priority 2009, dated 2013)
